Reference: patent US20100210692A1, “METHODS OF TREATMENT USING SIRT MODULATORS AND COMPOSITIONS CONTAINING SIRT1 MODULATORS” (priority 2007, published 2010)
“Also recorded” adds a separate entry of the source.

Legend:
[1] = test system: Fibroblasts that ectopically express PPARγ; assay: qPCR of FGF21 mRNA in fibroblasts that ectopically express PPARγ (Example 4); assay type: cell-based; conditions: 5 μM compound with 5 μM troglitazone, day 4 to 6
Description: Cells were harvested on day 6 for qPCR measurement of FGF21 mRNA. Three separate dishes of cells were analyzed for each condition.

SIRT1 [2] = target: T1, SIRT1 (Homo sapiens, UniProt Q96EB6); assay: SIRT1 p53-382 IC50 assay (Table 1); assay type: biochemical
T1 sequence (Q96EB6 1-747): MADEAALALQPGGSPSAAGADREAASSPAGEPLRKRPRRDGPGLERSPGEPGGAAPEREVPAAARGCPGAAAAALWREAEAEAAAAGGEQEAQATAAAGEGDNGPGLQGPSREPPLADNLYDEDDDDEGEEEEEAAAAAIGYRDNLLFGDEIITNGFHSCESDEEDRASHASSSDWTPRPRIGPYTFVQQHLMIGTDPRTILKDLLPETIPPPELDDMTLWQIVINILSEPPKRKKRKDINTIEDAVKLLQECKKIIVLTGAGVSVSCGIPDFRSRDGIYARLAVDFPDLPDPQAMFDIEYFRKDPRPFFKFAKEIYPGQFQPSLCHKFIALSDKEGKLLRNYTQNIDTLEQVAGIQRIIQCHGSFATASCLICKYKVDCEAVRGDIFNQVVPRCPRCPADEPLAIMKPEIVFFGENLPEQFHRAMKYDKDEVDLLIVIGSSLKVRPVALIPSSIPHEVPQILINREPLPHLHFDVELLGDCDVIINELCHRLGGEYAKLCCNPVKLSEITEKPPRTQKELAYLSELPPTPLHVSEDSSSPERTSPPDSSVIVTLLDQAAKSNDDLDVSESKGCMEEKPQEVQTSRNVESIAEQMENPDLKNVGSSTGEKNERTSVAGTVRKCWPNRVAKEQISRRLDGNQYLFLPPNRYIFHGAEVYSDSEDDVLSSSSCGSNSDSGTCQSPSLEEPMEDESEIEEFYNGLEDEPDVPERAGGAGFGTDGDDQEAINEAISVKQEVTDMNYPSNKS

SIRT1 [3] = target: T1, SIRT1; assay: Activity of enantiomers against the SIRT1 enzyme; assay type: biochemical; conditions: comparison of enantiomers
Swiss WT-PPARγ cells = assay: RT-PCR of Group 1 and Group 2 genes in Swiss WT-PPARγ cells; assay type: cell-based, mouse; conditions: for expression of C/EBPα and adiponectin in response to endogenous ligands (FIG. 14B) / expression of the Group 2 genes in response to endogenous ligands (FIG. 14B): antagonist 10 μM, day 5
Description: (§1) Cells were then harvested for extraction of RNA followed by RT-PCR analysis of FGF21 and FABP4/aP2 mRNAs as described in materials and methods. (B). […] (C). Reporter assays were also performed in Swiss fibroblasts stably expressing a WT-PPARγ or a pBabe-puro empty vector (control cells) following transfection of the FGF21 promoter reporter plasmids along with the renilla control vector in the presence or absence of GW1929. In both assays (B) and (C), a set of cells were also transfected with a reporter plasmid consisting of the PPRE from the aP2 gene upstream of luciferase within pGL3 (DR-1). Transcriptional activity of each of the fragments of the FGF21 gene promoter is shown as the ratio of luciferase to renilla activity (Luc/Ren) as described in materials and methods.
(§2) Cells were refed every 2 days.

[4] = test system: Swiss 3T3 fibroblasts expressing wild type PPARγ; assay: RT-PCR of mRNAs in Swiss 3T3 fibroblasts expressing wild type PPARγ (FIG. 5); assay type: cell-based, mouse; conditions: troglitazone 5 μM or T0070907 10 μM with differentiation cocktail, day 6
3T3-L1 adipocytes [5] = assay: Western blot of adiponectin secretion and intracellular proteins in 3T3-L1 adipocytes; assay type: cell-based, Murine; conditions: for secretion of the HMW adiponectin complexes: non-reducing SDS-PAGE
Description: Cell Culture: Murine 3T3-L1 preadipocytes were cultured and maintained in DMEM supplemented with […]. Differentiation was induced by exposure of postconfluent cells to DMEM containing 10% […], 1 μM dexamethasone (DEX), 0.5 mM 3-isobutyl-1-methylxanthine (MIX) and […] insulin. After 48 hours, the medium was changed to DMEM containing 10% FBS every two days. Human embryonic kidney (HEK)-293T cells were cultured in DMEM with 10% FBS; The Swiss F-PPARγ cells were differentiated as recently described (Wang et al, 2006; accompanying paper).
Western Blot Analysis of Proteins: Isolation and western blot analysis of total cell proteins was performed as outlined previously (21). The antibodies employed in the analysis were as follows: Mouse polyclonal anti-adiponectin antibody (Affinity BioREagents, Golden, Colo.), polyclonal anti-SIRT1 antibody (Upstate), anti-PPARγ and anti-C/EBPα (Santa Cruz Biotechnology), anti-Ero1 polyclonal antibody (Abnova Co., Taiwan, China) and polyclonal anti-aP2 serum (Dr. David Benlohr at University of Minnesota). For analysis of secreted proteins, aliquots of the culture medium were centrifuged at low speed to remove debris and then subjected to standard SDS-PAGE as above or non-reducing SDS-PAGE as outlined by Kadowaki and collaborators (37). Prior to electrophoresis, the samples were mixed with 4× non-reducing protein sample buffer (200 mM, […], 8% SDS, 0.4% bromophenot blue, 40% glycerol) and incubated at room temperature for one hour. Care was taken to ensure that all components of the SDs PAGE system were completely free of reducing agents.

[6] = test system: mouse FGF21 promotor constructs; assay: FGF21 promoter luciferase reporter gene assay in Swiss fibroblasts; assay type: cell-based; conditions: 1 μM GW1929, 48 hours
Description: as §1

Swiss EF-PPARγ cells = assay: RT-PCR of Group 1 and Group 2 genes in Swiss EF-PPARγ / F-PPARγ cells
Description: In (A), (B) and (C), total RNA of cells was isolated at day 5 using Trizol Reagent (Invitrogen) and subjected to RT-PCR analysis of the indicated Group 1 and Group 2 genes as described in materials and methods.
Cell Culture: The Swiss fibroblast cell lines expressing wild type (WT.) and mutant forms of PPARγ (E, EF, F, DD) generated as previously described (22) and murine 3T3-L1 preadipocytes were grown in Dulbecco's modified Eagle's medium (DMEM) containing 10% FBS (fibroblasts) or 10% calf serum (preadipocytes) until confluent and were then maintained in the same medium for an additional 2 days. […] Cells were refed every 2 days.
Analysis of RNA: Total cellular RNA was prepared using TRIzol reagent (InVitrogen) according to the manufacturer's instructions. As were made from equivalent amounts of total RNA by using Reverse Transcription System (Promega) as described previously (33).

[7] = test system: Swiss F372A PPARγ cells (F-Ero1); assay: Adiponectin secretion in Swiss F372A PPARγ cells with ectopic Ero1-Lα (FIG. 9); assay type: cell-based, mouse; conditions: F-Ero1 cells + tetracycline, 50 μM resveratrol for 2 days from day 4
3T3-L1 adipocytes [8] = assay: RT-PCR of Group 1 and Group 2 genes in differentiating 3T3-L1 cells (FIG. 17); assay type: cell-based, murine; conditions: SIRT1 knockdown 3T3-L1 cells, day 4, 2 days exposure
Source text: Untreated and treated cells were harvested for analysis of select mRNAs using RT-PCR as described in materials and methods. […] (C). Model proposing interplay between PPARγ and SIRT1 in controlling adipocyte function, PPARγ functions to regulate adipocyte formation and function. Endogenous ligands activate PPARγ requiring participation of both helix 7 and 12 to orchestrate adipogenesis. In mature adipocytes, SIRT1 mediates hormonal and nutrient control of select PPARγ target genes that are involved in controlling metabolism by suppressing the action of endogenous ligands. The thiazolidinedione (TZD) family of synthetic PPARγ ligands can overcome the suppressive effects of SIRT1 acting through helix 7 as well as helix 12 to induce the metabolic genes.
as §2

Ero1-Lα = assay: Transient knockdown of Ero1-Lα in 3T3-L1 adipocytes; assay type: cell-based, Murine; conditions: 100 nM RNAi duplex, transfected day 4 and 5, harvested day 6
Description: 3T3-L1 preadipocytes were cultured in 60 mm dishes and induced to differentiate as described above. On day 4, the differentiation-inducing medium was replaced with 2.5 mL, fresh DMEM containing 10% FBS. 15 μL TransIT-TKO Transfection Reagent (Mirus Bio Cooperadon. Madison, Wis.) was diluted into 250 μL serum free DMEM and incubated at room temperature for 20 minutes, at which time 100 nM Ero1-Lα RNAi duplex or control duplex […]) was added and mixed thoroughly. After incubation at room temperature for another 20 minutes, the resulting TranIT-TKO/RNAi mixture was gently mixed into the adipocyte cultures. The next day, the medium was changed to 2.5 mL flesh DMEM containing 10% FBS and the transfection was repeated as on day 4. On day 6, the total cellular proteins were harvested and subjected to Western blot analysis. The modified synthetic Ero1-Lα RNAi duplexes (Stealth™ siRNA) were from Invitrogen Life Technologies. The sequences are as follows:
Western Blot Analysis of Proteins: Isolation and western blot analysis of total cell proteins was performed as outlined previously (21). […]

[9] = control and SIRT1 knock down 3T3-L1 cells, T0070907 10 μM (FIG. 6D)
[10] = troglitazone 5 μM or T0070907 10 μM, 3 days
[11] = resveratrol 50 μM or nicotinamide 5 mM, 2 days
[12] = resveratrol 50 μM or nicotinamide 5 mM, 2 days, reducing SDS-PAGE

## NC(=O)C1CCCCc2c1[nH]c1ccc(Cl)cc21 (racemic) [Compound E2]
[1]
  FGF21 expression induced by troglitazone (FIG. 20): potentiate the activity of troglitazone in inducing FGF21 expression

## Cc1ccc2[nH]c3c(c2c1)CCCC3C(N)=O (stereo not drawn) [Compound 4, 6-Methyl-2,3,4,9-tetrahydro-1H-carbazole-1-carboxylic acid amide]
SIRT1 [2]
  IC50: < 1000 nM

## NC(=O)C1CCCc2c1[nH]c1ccc(Cl)cc21 (stereo not drawn) [Compound E1]
SIRT1 [3]
  activity against the SIRT1 enzyme: inactive isomer

## NC(=O)C1CCCc2c1[nH]c1ccc(Cl)cc21 (stereo not drawn) [Compound E3]
SIRT1 [3]
  activity against the SIRT1 enzyme: active isomer
[1]
  FGF21 expression induced by troglitazone (FIG. 20): potentiate the activity of troglitazone in inducing FGF21 expression

## O=C(Nc1ccncc1)c1cc([N+](=O)[O-])ccc1Cl [Compound T0070907]
Swiss WT-PPARγ cells
  expression of C/EBPα and adiponectin in response to endogenous ligands (FIG. 14B): moderately attenuate
  expression of the Group 2 genes in response to endogenous ligands (FIG. 14B): almost completely block expression of the Group 2 genes; also recorded: the most potent
[4]
  Ero1-Lα mRNA expression: attenuates Ero1-Lα expression
3T3-L1 adipocytes [5]; [9]
  Ero1-Lα expression: inhibits Ero1-Lα expression
  adiponectin secretion: suppresses adiponectin secretion
3T3-L1 adipocytes [5]; [10]
  amount of secreted HMW adiponectin: has the opposite effect
  secretion of adipsin: has the opposite effect

## CN(CCOc1ccc(C[C@H](Nc2ccccc2C(=O)c2ccccc2)C(=O)O)cc1)c1ccccn1 [GW1929]
[6]; Swiss cells stably expressing WT-PPARγ
  transcriptional activity of the 500 bp fragment of the FGF21 gene: enhanced many fold
[6]; Swiss fibroblasts co-transfected with PPARγ expression plasmid
  luciferase activity of FGF21 gene fragments (FIG. 15B): enhanced even further
[6]; control Swiss fibroblasts without PPARγ plasmid
  luciferase activity of FGF21 gene fragments (FIG. 15B): has no affect on this activity
Swiss EF-PPARγ cells
  expression of select Group 1 genes (FIG. 14A): capable of inducing expression of the Group 2 genes as well as Group 1 genes

## O=C(Nc1ccccc1)c1cc([N+](=O)[O-])ccc1Cl [GW9662]
Swiss WT-PPARγ cells
  expression of C/EBPα and adiponectin in response to endogenous ligands (FIG. 14B): moderately attenuate
  expression of the Group 2 genes in response to endogenous ligands (FIG. 14B): almost completely block expression of the Group 2 genes

## C[C@@H]1C[C@@H]([C@H](O)CC2CC(=O)NC(=O)C2)C(=O)[C@@H](C)C1 [cycloheximide]
Swiss WT-PPARγ cells; day 5 cells, troglitazone 5 μM or cycloheximide 5 μg/ml for 4, 6 or 8 hrs
  FGF21 mRNA expression (FIG. 15A): induced simply due to exposure to cycloheximide

## O=C[C@H](O)[C@@H](O)[C@H](O)[C@H](O)CO [glucose]
3T3-L1 adipocytes [5]; glucose or 20 mM lactate, non-reducing SDS-PAGE without heat
  secretion of HMW forms of adiponectin: significant increase in the appearance of the HMW species in the media
3T3-L1 adipocytes [5]; increase in glucose concentration, 72 hrs
  SIRT1 expression: significant decrease of SIRT1 expression
3T3-L1 adipocytes [5]; increasing concentrations of glucose, 72 hrs, reducing SDS-PAGE
  amount of adiponectin secreted into the medium (Ext): dramatically increases the amount of adiponectin secreted into the medium

## NC(=O)c1cccnc1 [nicotinamide]
3T3-L1 adipocytes [5]; [11]
  secretion of adipsin: has no effect on adipsin
  secretion of the HMW adiponectin complexes: enhances
3T3-L1 adipocytes [5]; [12]
  secretion of adiponectin (Ext): enhancing secretion of adiponectin

## Oc1ccc(C=Cc2cc(O)cc(O)c2)cc1 [resveratrol]
[7]
  secretion of adiponectin: inhibits secretion of adiponectin
3T3-L1 adipocytes [5]; [11]
  secretion of adipsin: without affecting secretion of adipsin
  secretion of the HMW adiponectin complexes: decreases
3T3-L1 adipocytes [5]; [12]
  secretion of adiponectin (Ext): reduces the secretion of adiponectin

## Cc1c(C)c2c(c(C)c1O)CCC(C)(COc1ccc(CC3SC(=O)NC3=O)cc1)O2 (stereo not drawn) [troglitazone]
Swiss EF-PPARγ cells; EF-PPARγ cells, 5 days
  doses of troglitazone inducing C/EBPα, adiponectin and FABP4/aP2 (FIG. 14C): 250 to 500 nM
3T3-L1 adipocytes [8]
  dose of troglitazone inducing FGF21 and Egln1 (FIG. 17B): 250 nM

## OCCS [β-mercaptoethanol]
3T3-L1 adipocytes [5]; β-mercaptoethanol treatment, preliminary data, not shown
  secretion of adiponectin: significantly enhances the secretion of adiponectin

## GGGCUCUCUCCAAAGUGCUUCCAUU [siRNA #3]
Ero1-Lα
  attenuation of Ero1-Lα expression: the most effective
